Assay results as given in patent publication US20240408169A1 (priority 2023, published 2024).
Read-outs that look alike come from different tables or passages of the source. *1 amine or outer side, *2 acyl side, *3 side chain or, on linkers, in order; H or OH if unused. Where a SMILES comes first, the peptide text is derived from it. Bridges are numbered along the chain shown (N, C = ends). [ ]: non-standard residue; d: D form. The star is where a group is joined. NMePhe(2-(4-MorPh),5-Cl) = CN[C@@H](Cc1cc(Cl)ccc1-c1ccc(N2CCOCC2)cc1)C(=O)O; X43 = CC(C)N1CCN(c2ccc(-c3ccc(Cl)cc3C[C@@H](C(=O)[*:2])N(C)[*:1])cc2)CC1; X105 = CN([C@@H](Cc1cc(Cl)ccc1-c1cnn(C2CCOC2)c1)C(=O)[*:2])[*:1]; X99 = CC(=O)N1CCC(Oc2ccc(Cl)cc2C[C@@H](C(=O)[*:2])N(C)[*:1])CC1; X26 = CN([C@@H](Cc1cc(F)ccc1-c1cnn(C2CC2)c1)C(=O)[*:2])[*:1]; NMehhhLys(Me) = CN([C@@H](CCCCCCCN(C)[*:3])C(=O)[*:2])[*:1]; X2 = CN([C@@H](Cc1cc(Cl)ccc1-c1ccc2ncnn2c1)C(=O)[*:2])[*:1]; NMe3Pal(2-OMe,5-Cl) = CN[C@@H](Cc1cc(Cl)cnc1OC)C(=O)O; Cyclobutanecarbonyl(1-CF3) = O=C(C1(C(F)(F)F)CCC1)*; cBuCO(3,3-F2-1-CF3) = O=C(C1(C(F)(F)F)CC(F)(F)C1)*; Pro(trans-4-F) = O=C(O)[C@@H]1C[C@@H](F)CN1; Nva(5-OH) = N[C@@H](CCCO)C(=O)O; Gly(cPr) = N[C@H](C(=O)O)C1CC1

Columns and labels:
[1] = molecular target: T1, CyclinA2/CDK2 (Homo sapiens, UniProt P20248); assay: Fluorescence Polarization (FP) competitive binding assay, Cyclin A2/Cdk2;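 note: plates equilibrated two hours at room temperature before polarization reading, IC50 fitted from eight-concentration compound titration curves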
T1 construct: purchased CRELUX Protein Services

[2] = molecular target: T2, CyclinE1/CDK2 (Homo sapiens, UniProt P24864); assay: Fluorescence Polarization (FP) competitive binding assay, Cyclin E1/Cdk2;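 note: readings taken after two-hour equilibration at room temperature in HEPES buffer with NaCl, DTT, NP-40 and BSA, IC50 fitted from eight-concentration serial dilution series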
T2 construct: purchased Eurofins, discovery 14-475

[3] = system: WI-38 cells; assay: MTT proliferation assay, WI-38; type: cell-based; conditions: 3 days compound exposure, 1:3 serial dilution starting at 10 μM;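 note: Eight- or ten-point dilution series, with exposure length chosen to span about three to four cell doublings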
[4] = system: OVCAR3 cells; assay: MTT proliferation assay, OVCAR3; type: cell-based; conditions: 5 days compound exposure, 1:3 serial dilution starting at 10 μM;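 note: compound given as an 8- or 10-point series, one day after plating, with exposure covering roughly 3-4 cell doublings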
[5] = molecular target: T3, CyclinB1/CDK1 (Homo sapiens, UniProt P14635); assay: Fluorescence Polarization (FP) competitive binding assay, Cyclin B1/Cdk1;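 note: fluorescence polarization read after equilibration at room temperature, with IC50 taken from serially diluted dose-response curves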
T3 construct: purchased Eurofins, discovery 14-450

[6] = system: NCI-H1048 cells; assay: MTT proliferation assay, NCI-H1048; type: cell-based; conditions: 5 days compound exposure, 1:3 serial dilution starting at 10 μM;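 note: Dose-response in 96-well plates over 8 or 10 concentration points, with exposure spanning 3-4 cell doublings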
[7] = 8 nM Cyclin A2/Cdk2, 2 nM FAM probe, average of 2-3 independent experiments, read-out: Cyclin A FP IC50
[8] = 10 nM Cyclin E1/Cdk2, 2 nM FAM probe, average of 2-3 independent experiments, read-out: Cyclin E FP IC50
[9] = 10 nM Cyclin B1/Cdk1, 2 nM FAM probe; average of 2-3 independent experiments; read-out: Cyclin B FP IC50
[10] = read-out: Cyclin B FP IC50; 10 nM Cyclin B1/Cdk1, 2 nM FAM probe; average of 2-3 independent experiments

SMILES	IC50 [1, 7] [nM]	IC50 [2, 8] [nM]	GI50 [3] [µM]	GI50 [4] [nM]	IC50 [5, 9] [nM]	GI50 [6] [nM]	IC50 [1] [nM]	IC50 [2] [nM]	IC50 [5, 10] [nM]
CC(C)C[C@@H]1NC(=O)[C@@H](N(C)C(=O)[C@@H](NC(=O)[C@@H]2C[C@@H](F)CN2C(=O)C2(C(F)(F)F)CC(F)(F)C2)C2CC2)CC=CCCCCN(C)C(=O)[C@H](Cc2cc(F)ccc2C2=CCC(O)CC2)N(C)C1=O (stereo partly drawn) [Example 47]	40	800	12.9	130	20	30			
CC(C)C[C@@H]1NC(=O)[C@@H](N(C)C(=O)[C@@H](NC(=O)[C@@H]2C[C@@H](F)CN2C(=O)C2(C(F)(F)F)CC(F)(F)C2)C2CC2)CCCCCCN(C)C(=O)[C@H](Cc2cc(Cl)ccc2-c2cnn(C)c2)N(C)C1=O [Example 72]	30	1050	14.9	60	20	40			
CC(C)C[C@@H]1NC(=O)[C@@H](N(C)C(=O)[C@@H](NC(=O)[C@@H]2C[C@@H](F)CN2C(=O)C2(C(F)(F)F)CC(F)(F)C2)C2CC2)CCCCCCCN(C)C(=O)[C@H](Cc2cc(Cl)ccc2-c2ccc3ncnn3c2)N(C)C1=O [Example 232] ({cBuCO(3,3-F2-1-CF3)}-[Pro(trans-4-F)][Gly(cPr)][NMehhhLys(Me)]L[X2]; lactam 3-C)			11.6	80		50	50	2870	20
CC(C)C[C@@H]1NC(=O)[C@@H](N(C)C(=O)[C@H](CCCO)NC(=O)[C@@H]2C[C@@H](F)CN2C(=O)C2(C(F)(F)F)CC(F)(F)C2)CCCCCCCN(C)C(=O)[C@H](Cc2cc(Cl)ccc2-c2ccc(N3CCOCC3)cc2)N(C)C1=O [Example 421] ({cBuCO(3,3-F2-1-CF3)}-[Pro(trans-4-F)][Nva(5-OH)][NMehhhLys(Me)]L[NMePhe(2-(4-MorPh),5-Cl)]; lactam 3-C)	20	510	19.1	10	20	10			
CC(C)C[C@@H]1NC(=O)[C@@H](N(C)C(=O)[C@@H](NC(=O)[C@@H]2C[C@@H](F)CN2C(=O)C2(C(F)(F)F)CC(F)(F)C2)C2CC2)CCCCCCCN(C)C(=O)[C@H](Cc2cc(Cl)ccc2-c2cnn(C3CCOC3)c2)N(C)C1=O (stereo partly drawn) [Example 113] ({cBuCO(3,3-F2-1-CF3)}-[Pro(trans-4-F)][Gly(cPr)][NMehhhLys(Me)]L[X105]; lactam 3-C)	20	310	7.24	10	20	10			
CC(C)C[C@@H]1NC(=O)[C@@H](N(C)C(=O)[C@@H](NC(=O)[C@@H]2C[C@@H](F)CN2C(=O)C2(C(F)(F)F)CC(F)(F)C2)C2CC2)CCCCCCCN(C)C(=O)[C@H](Cc2cc(Cl)ccc2-c2ccc(N3CCN(C(C)C)CC3)cc2)N(C)C1=O [Example 347] ({cBuCO(3,3-F2-1-CF3)}-[Pro(trans-4-F)][Gly(cPr)][NMehhhLys(Me)]L[X43]; lactam 3-C)	20	650	1.81	10	20	10			
CC(=O)N1CCC(Oc2ccc(Cl)cc2C[C@H]2C(=O)N(C)CCCCCCC[C@H](N(C)C(=O)[C@@H](NC(=O)[C@@H]3C[C@@H](F)CN3C(=O)C3(C(F)(F)F)CC(F)(F)C3)C3CC3)C(=O)N[C@@H](CC(C)C)C(=O)N2C)CC1 [Example 243] ({cBuCO(3,3-F2-1-CF3)}-[Pro(trans-4-F)][Gly(cPr)][NMehhhLys(Me)]L[X99]; lactam 3-C)			13.3	40		50	50	690	20
COc1ncc(Cl)cc1C[C@H]1C(=O)N(C)CCCCCCC[C@H](N(C)C(=O)[C@@H](NC(=O)[C@@H]2C[C@@H](F)CN2C(=O)C2(C(F)(F)F)CCC2)C2CC2)C(=O)N[C@@H](CC(C)C)C(=O)N1C [Example 224] ({Cyclobutanecarbonyl(1-CF3)}-[Pro(trans-4-F)][Gly(cPr)][NMehhhLys(Me)]L[NMe3Pal(2-OMe,5-Cl)]; lactam 3-C)	30	100	12.4	10	20	10			
CC(C)C[C@@H]1NC(=O)[C@@H](N(C)C(=O)[C@@H](NC(=O)[C@@H]2C[C@@H](F)CN2C(=O)C2(C(F)(F)F)CCC2)C2CC2)CCCCCCCN(C)C(=O)[C@H](Cc2cc(F)ccc2-c2cnn(C3CC3)c2)N(C)C1=O [Example 186] ({Cyclobutanecarbonyl(1-CF3)}-[Pro(trans-4-F)][Gly(cPr)][NMehhhLys(Me)]L[X26]; lactam 3-C)	20	100	8.68	10	20	10			
